# Reference: patent publication US11795171B2, “Pyrrolotriazinones and imidazotriazinones as ubiquitin-specific protease 7 inhibitors” (Valo Health, Inc., priority 2014, dated 2023)
# Molecular target: USP7 (Homo sapiens (Human), UniProt Q93009)
# Test: USP7 Assay B (Ubitquin-Rhodamine110 Assay)
# Type: biochemical
# Conditions: Ub-Rh110 substrate 25 nM
# Chain of USP7 (Q93009 208-1102): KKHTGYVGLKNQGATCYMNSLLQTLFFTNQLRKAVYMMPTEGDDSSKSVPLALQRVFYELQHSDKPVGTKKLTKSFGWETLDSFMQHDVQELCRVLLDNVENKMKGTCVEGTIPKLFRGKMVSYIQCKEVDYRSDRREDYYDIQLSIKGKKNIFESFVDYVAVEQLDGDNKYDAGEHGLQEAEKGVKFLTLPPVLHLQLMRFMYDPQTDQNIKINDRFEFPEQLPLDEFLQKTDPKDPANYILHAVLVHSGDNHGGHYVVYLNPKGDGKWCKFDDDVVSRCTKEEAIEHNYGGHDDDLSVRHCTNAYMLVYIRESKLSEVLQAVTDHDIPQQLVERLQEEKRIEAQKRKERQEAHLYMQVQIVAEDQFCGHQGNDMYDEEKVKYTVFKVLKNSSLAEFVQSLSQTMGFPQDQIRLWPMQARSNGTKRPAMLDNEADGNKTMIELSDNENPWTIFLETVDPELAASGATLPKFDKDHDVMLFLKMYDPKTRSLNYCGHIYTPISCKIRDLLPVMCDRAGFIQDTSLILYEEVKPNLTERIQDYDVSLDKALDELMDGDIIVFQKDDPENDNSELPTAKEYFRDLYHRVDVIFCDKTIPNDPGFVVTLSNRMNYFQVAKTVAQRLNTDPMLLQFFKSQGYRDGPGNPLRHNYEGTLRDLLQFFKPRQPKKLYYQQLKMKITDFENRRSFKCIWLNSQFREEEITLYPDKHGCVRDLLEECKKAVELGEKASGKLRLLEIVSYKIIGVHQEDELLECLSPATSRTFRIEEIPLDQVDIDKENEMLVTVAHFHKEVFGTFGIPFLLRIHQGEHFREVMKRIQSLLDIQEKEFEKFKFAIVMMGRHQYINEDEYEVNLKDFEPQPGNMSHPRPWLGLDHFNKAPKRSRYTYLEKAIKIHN
row,Compound,IC50 [µM]
1,"CS(=O)(=O)c1ccc(N2CCN(C(=O)N3CCC(O)(Cn4cnn5cccc5c4=O)CC3)CC2)cc1 [Compound I-74, 3-((4-hydroxy-1-(4-(4-(methylsulfonyl)phenyl)piperazine-1-carbonyl)piperidin-4-yl)methyl)pyrrolo[2,1-f][1,2,4]triazin-4(3H)-one]",> 10
2,"O=C(c1cccc(-c2ccc(Cl)cc2)c1)N1CCC(O)(Cn2cnn3cccc3c2=O)CC1 [Compound I-12, 3-((1-(4′-chloro-[1,1′-biphenyl]-3-carbonyl)-4-hydroxypiperidin-4-yl)methyl)pyrrolo[2,1-f][1,2,4]triazin-4(3H)-one]",1 to 10
3,"O=C(c1cccc(-c2cccc(Cl)c2)c1)N1CCC(O)(Cn2cnn3cccc3c2=O)CC1 [Compound I-13, 3-((1-(3′-chloro-[1,1′-biphenyl]-3-carbonyl)-4-hydroxypiperidin-4-yl)methyl)pyrrolo[2,1-f][1,2,4]triazin-4(3H)-one]",1 to 10
4,"O=C(c1ccc(Cn2cccn2)cc1)N1CCC(O)(Cn2cnn3cccc3c2=O)CC1 [Compound I-65, 3-((1-(4-((1H-pyrazol-1-yl)methyl)benzoyl)-4-hydroxypiperidin-4-yl)methyl)pyrrolo[2,1-f][1,2,4]triazin-4(3H)-one]",1 to 10
5,"O=C(c1ccccc1)c1ccc(C(=O)N2CCC(O)(Cn3cnn4cccc4c3=O)CC2)cc1 [Compound I-71, 3-((1-(4-benzoylbenzoyl)-4-hydroxypiperidin-4-yl)methyl)pyrrolo[2,1-f][1,2,4]triazin-4(3H)-one]",1 to 10
6,"O=C(c1ccc(-c2ccc(C(=O)N3CCC(O)(Cn4cnn5cccc5c4=O)CC3)cc2)cc1)N1CCCCC1 [Compound I-52, 3-((4-hydroxy-1-(4′-(piperidine-1-carbonyl)-[1,1′-biphenyl]-4-carbonyl)piperidin-4-yl)methyl)pyrrolo[2,1-f][1,2,4]triazin-4(3H)-one]",> 10
7,"N#Cc1ccccc1-c1cccc(C(=O)N2CCC(O)(Cn3cnn4cccc4c3=O)CC2)c1 [Compound I-18, 3′-(4-hydroxy-4-((4-oxopyrrolo[2,1-f][1,2,4]triazin-3(4H)-yl)methyl)piperidine-1-carbonyl)-[1,1′-biphenyl]-2-carbonitrile]",> 10
8,"O=C(c1ccc(CN2CCCCC2)cc1Cl)N1CCC(O)(Cn2cnn3cccc3c2=O)CC1 [Compound I-75, 3-((1-(2-chloro-4-(piperidin-1-ylmethyl)benzoyl)-4-hydroxypiperidin-4-yl)methyl)pyrrolo[2,1-f][1,2,4]triazin-4(3H)-one]",> 10
9,"COc1cccc(NC(=O)Nc2cc3c(=O)n(CC4(O)CCN(C(=O)C5CC5)CC4)cnn3c2)c1 [Compound I-101, 1-(3-((1-(cyclopropanecarbonyl)-4-hydroxypiperidin-4-yl)methyl)-4-oxo-3,4-dihydropyrrolo[2,1-f][1,2,4]triazin-6-yl)-3-(3-methoxyphenyl)urea]",> 10
10,"O=C(COc1ccc(OC(F)(F)F)cc1)Nc1cc2c(=O)n(CC3(O)CCN(C(=O)C4CC4)CC3)cnn2c1 [Compound I-104, N-(3-((1-(cyclopropanecarbonyl)-4-hydroxypiperidin-4-yl)methyl)-4-oxo-3,4-dihydropyrrolo[2,1-f][1,2,4]triazin-6-yl)-2-(4-(trifluoromethoxy)phenoxy)acetamide]",> 10
11,"O=C(c1ccc(-c2cscn2)cc1)N1CCC(O)(Cn2cnn3cccc3c2=O)CC1 [Compound I-59, 3-((4-hydroxy-1-(4-(thiazol-4-yl)benzoyl)piperidin-4-yl)methyl)pyrrolo[2,1-f][1,2,4]triazin-4(3H)-one]",> 10
12,"O=C(NCc1ccc(F)cc1)Nc1cc2c(=O)n(CC3(O)CCN(C(=O)C4CC4)CC3)cnn2c1 [Compound I-87, 1-(3-((1-(cyclopropanecarbonyl)-4-hydroxypiperidin-4-yl)methyl)-4-oxo-3,4-dihydropyrrolo[2,1-f][1,2,4]triazin-6-yl)-3-(4-fluorobenzyl)urea]",> 10
13,"CCC(Cc1ccccc1)C(=O)N1CCC(O)(Cn2cnn3cccc3c2=O)CC1 (centres unmarked) [Compound I-60, 3-((1-(2-benzylbutanoyl)-4-hydroxypiperidin-4-yl)methyl)pyrrolo[2,1-f][1,2,4]triazin-4(3H)-one]",1 to 10
14,"Cc1c(F)cccc1NC(=O)Nc1cc2c(=O)n(CC3(O)CCN(C(=O)C4CC4)CC3)cnn2c1 [Compound I-97, 1-(3-((1-(cyclopropanecarbonyl)-4-hydroxypiperidin-4-yl)methyl)-4-oxo-3,4-dihydropyrrolo[2,1-f][1,2,4]triazin-6-yl)-3-(3-fluoro-2-methylphenyl)urea]",> 10
15,"O=C(c1ccc(Cn2cnc3ccccc32)cc1)N1CCC(O)(Cn2cnn3cccc3c2=O)CC1 [Compound I-64, 3-((1-(4-((1H-benzo[d]imidazol-1-yl)methyl)benzoyl)-4-hydroxypiperidin-4-yl)methyl)pyrrolo[2,1-f][1,2,4]triazin-4(3H)-one]",1 to 10
16,"O=C(c1cccc(-c2ccc(C(F)(F)F)cc2)c1)N1CCC(O)(Cn2cnn3cccc3c2=O)CC1 [Compound I-15, 3-((4-hydroxy-1-(4′-(trifluoromethyl)-[1,1′-biphenyl]-3-carbonyl)piperidin-4-yl)methyl)pyrrolo[2,1-f][1,2,4]triazin-4(3H)-one]",> 10
17,"O=C(c1cccc(-c2ccc3nccn3c2)c1)N1CCC(O)(Cn2cnn3cccc3c2=O)CC1 [Compound I-22, 3-((4-hydroxy-1-(3-(imidazo[1,2-a]pyridin-6-yl)benzoyl)piperidin-4-yl)methyl)pyrrolo[2,1-f][1,2,4]triazin-4(3H)-one]",> 10
18,"Cc1cc(C(F)(F)F)nn1Cc1ccc(C(=O)N2CCC(O)(Cn3cnn4cccc4c3=O)CC2)cc1 [Compound I-67, 3-((4-hydroxy-1-(4-((5-methyl-3-(trifluoromethyl)-1H-pyrazol-1-yl)methyl)benzoyl)piperidin-4-yl)methyl)pyrrolo[2,1-f][1,2,4]triazin-4(3H)-one]",1 to 10
19,"N#Cc1ccc(-c2cccc(C(=O)N3CCC(O)(Cn4cnn5cccc5c4=O)CC3)c2)cc1 [Compound I-19, 3′-(4-hydroxy-4-((4-oxopyrrolo[2,1-f][1,2,4]triazin-3(4H)-yl)methyl)piperidine-1-carbonyl)-[1,1′-biphenyl]-4-carbonitrile]",> 10
20,"3-((1-(3-(1H-pyrazol-1-yl)butanoyl)-4-hydroxypiperidin-4-yl)methyl)pyrrolo[2,1-f][1,2,4]triazin-4(3H)-one [Compound I-34]",> 10
21,"O=C(c1cccc(-c2ccc3c(c2)OCO3)c1)N1CCC(O)(Cn2cnn3cccc3c2=O)CC1 [Compound I-5, 3-((1-(3-(benzo[d][1,3]dioxol-5-yl)benzoyl)-4-hydroxypiperidin-4-yl)methyl)pyrrolo[2,1-f][1,2,4]triazin-4(3H)-one]",1 to 10
22,"O=C(c1ccc(Cc2cccs2)cc1)N1CCC(O)(Cn2cnn3cccc3c2=O)CC1 [Compound I-70, 3-((4-hydroxy-1-(4-(thiophen-2-ylmethyl)benzoyl)piperidin-4-yl)methyl)pyrrolo[2,1-f][1,2,4]triazin-4(3H)-one]",1 to 10
23,"CC(C)(C#N)c1ccc(C(=O)N2CCC(O)(Cn3cnn4cccc4c3=O)CC2)cc1 [Compound I-31, 2-(4-(4-hydroxy-4-((4-oxopyrrolo[2,1-f][1,2,4]triazin-3(4H)-yl)methyl)piperidine-1-carbonyl)phenyl)-2-methylpropanenitrile]",> 10
